Laboratory results reported in the supplement of paper PMC10307832.

Experiments:
Experiment in all cases: relative viability (nuclei count vs DMSO), 5 days (fraction); higher = more cells survive
[1] = compound: CC(C)C[C@H](NC(=O)[C@H](Cc1ccccc1)NC(=O)c1cnccn1)B(O)O [Bortezomib] + Nc1nc2[nH]cc(CCc3ccc(C(=O)N[C@@H](CCC(=O)O)C(=O)O)cc3)c2c(=O)[nH]1 [Pemetrexed] (partner 0.2 µM)
Procedure, shortened: (§1)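 Lung cancer cell lines were seeded in 1536-well plates and dosed by pin tool the next day, with either a single drug or a fixed anchor-drug dose combined with five library-drug doses (not always all listed) spaced in √10 steps. Five days later, one step fixed the cells and stained their nuclei (final 0.05% Triton X-100, 1% formaldehyde, 1 ug/ml Hoechst), and nuclei were counted on 4× images. Relative viability is the nuclei count in treated wells divided by the count in vehicle wells, and each value is the median of duplicate plates.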

[2] = compound: CC1=CC(=NN1)NC2=CC(=NC(=N2)/C=C/C3=CC=CC=C3)N4CCN(CC4)C + COc1cccc2cc(-c3nc([C@H]4CC[C@H](C(=O)O)CC4)n4ncnc(N)c34)[nH]c12 [OSI-027] (partner 0.5 µM)
Procedure, shortened: as §1

[3] = compound: CC1=CC(=NN1)NC2=CC(=NC(=N2)/C=C/C3=CC=CC=C3)N4CCN(CC4)C + Cc1cc(Nc2cc(N3CCN(C)CC3)nc(Sc3ccc(NC(=O)C4CC4)cc3)n2)n[nH]1 [Tozasertib] (partner 0.1 µM)
Procedure, shortened: as §1

[4] = compound: COC1=CC(c2cc3ccccc3[nH]2)=N/C1=C\c1[nH]c(C)cc1C [Obatoclax] + C[C@@H](Oc1cc(-c2cnn(C3CCNCC3)c2)cnc1N)c1c(Cl)ccc(F)c1Cl [Crizotinib] (partner 1 µM)
Procedure, shortened: as §1

Cell Line	relative viability ([1]; first compound 0.0002 µM)	relative viability ([1]; first compound 0.000632 µM)	relative viability ([1]; first compound 0.002 µM)	relative viability ([1]; first compound 0.006325 µM)	relative viability ([1]; first compound 0.02 µM)	relative viability ([2]; first compound 0.08 µM)	relative viability ([2]; first compound 0.253 µM)	relative viability ([2]; first compound 0.8 µM)	relative viability ([2]; first compound 2.53 µM)	relative viability ([2]; first compound 8 µM)	relative viability ([3]; first compound 0.08 µM)	relative viability ([3]; first compound 0.253 µM)	relative viability ([3]; first compound 0.8 µM)	relative viability ([3]; first compound 2.53 µM)	relative viability ([3]; first compound 8 µM)	relative viability ([4]; first compound 0.01 µM)	relative viability ([4]; first compound 0.03162 µM)	relative viability ([4]; first compound 0.3162 µM)	relative viability ([4]; first compound 1 µM)	relative viability ([4]; first compound 0.1 µM)
HCC-78	0.786	0.89	0.932	0.887	0.902	0.325	0.357	0.387	0.343	0.198	0.365	0.427	0.352	0.304	0.253	0.326	0.34	0.317	0.314	–
HCC-366	0.149	0.173	0.207	0.149	0.0543	0.833	0.618	0.875	0.0773	0.0341	0.0833	0.0907	0.0487	0.032	0.0245	0.63	0.554	0.533	0.354	0.468
HCC-827	0.265	0.254	0.219	0.234	0.247	0.778	0.865	0.716	0.742	0.588	0.404	0.375	0.422	0.355	0.236	0.86	0.847	0.876	0.772	0.957
HOP-62	0.257	0.321	0.445	0.223	0.0603	0.875	0.865	0.861	0.52	0.38	0.354	0.366	0.377	0.261	0.18	0.837	0.911	0.796	1	0.998
IA-LM	–	–	–	–	–	–	–	–	–	–	–	–	–	–	–	0.667	0.91	0.0663	0.0759	0.529
LC-2-ad	0.255	0.271	0.255	0.252	0.185	0.808	0.867	0.753	0.336	0.184	0.45	0.409	0.358	0.224	0.204	0.424	0.455	0.412	0.425	–
LCLC-97TM1	0.189	0.17	0.16	0.166	0.0769	0.427	0.335	0.564	0.192	0.2	0.235	0.132	0.23	0.145	0.126	0.452	0.27	0.329	0.358	0.339
LCLC-103H	0.46	0.483	0.47	0.559	0.317	0.504	0.486	0.463	0.378	0.332	0.451	0.484	0.389	0.232	0.191	0.944	1.03	1.03	1.03	1.02
LK-2	0.285	0.324	0.221	0.365	0.28	0.207	0.222	0.179	0.171	0.124	0.187	0.153	0.165	0.171	0.171	0.243	0.179	0.231	0.257	0.236
NCI-H522	1.29	1.04	1.08	0.442	0.35	0.709	0.629	0.609	0.56	0.421	0.559	0.579	0.684	0.462	0.399	–	–	–	–	–
NCI-H727	–	–	–	–	–	0.608	0.485	0.678	0.398	0.278	0.568	0.533	0.578	0.407	0.267	0.828	0.792	0.87	0.605	0.832
NCI-H1299	–	–	–	–	–	–	–	–	–	–	–	–	–	–	–	0.918	0.944	0.921	0.492	0.959
NCI-H1395	0.77	0.767	0.579	0.26	0.264	0.56	0.621	0.625	0.387	0.26	0.76	0.751	0.566	0.496	0.315	–	–	–	–	–
NCI-H1563	0.885	0.848	0.744	0.809	0.575	0.776	0.813	0.722	0.65	0.431	–	–	–	–	–	0.786	0.864	0.906	0.653	0.881
NCI-H1623	–	–	–	–	–	0.412	0.41	0.411	0.377	0.282	0.4	0.441	0.414	0.397	0.342	–	–	–	–	–
NCI-H1648	0.62	0.592	0.753	0.468	0.334	0.257	0.272	0.26	0.263	0.258	0.42	0.543	0.643	0.46	0.215	–	–	–	–	–
NCI-H1703	–	–	–	–	–	–	–	–	–	–	–	–	–	–	–	0.762	0.697	0.348	0.311	0.394
NCI-H1792	0.656	0.837	0.827	0.4	0.057	0.678	0.777	0.673	0.519	0.206	–	–	–	–	–	0.999	0.948	0.999	0.99	–
NCI-H1793	0.762	–	0.867	0.616	0.211	0.301	0.204	0.26	0.107	0.0726	0.298	0.537	0.207	0.123	0.111	–	–	–	–	–
NCI-H2342	0.801	0.783	0.739	0.752	0.712	0.557	0.594	0.662	0.577	0.381	0.527	0.503	0.438	0.376	0.324	–	–	–	–	–
SW 900	0.476	0.485	0.224	0.169	0.152	0.493	0.58	0.489	0.259	0.0615	0.594	0.667	0.559	0.326	0.174	–	–	–	–	–
